Data on 1 molecule can be found in EP1220845B1, “ARYL-SULFONAMIDE SUBSTITUTED BENZIMIDAZOL DERIVATIVES AND USE OF SAID AS TRYPTASE INHIBITORS” (Boehringer Ingelheim Pharma GmbH & Co.KG, priority 1999, dated 2001).

The assay addresses T1, rh beta Tryptase (Homo sapiens, UniProt Q15661).
T1 construct: purchased Promega
The assay can be described thus: Tryptase inhibition test (cleavage of chromogenic substrate, p-nitroaniline read at 405 nm). Type of assay: biochemical. To be noted: Tris HCl buffer 100 mM, calcium 5 mM, heparin, pH 7.4, 37°C; substrate N-p-Tosyl-Gly-Pro-Lys-para-nitroanilin 0.6 mM; 5 min preincubation, 5 min incubation; 0.91 U/ml enzyme. On the procedure:
Die erfindungsgemäßen Verbindungen zeichnen sich durch ihre Tryptase-inhibierende Wirksamkeit aus. Besagte Fähigkeit, die Tryptase zu inhibieren, wurde gemäß der nachfolgenden Testbeschreibung untersucht. Die Bestimmung wird in Tris HCI Puffer (100 mM), der zusätzlich Calcium (5 mM) und Heparin ([…]) enthält, bei pH 7.4 durchgeführt. Als Standard wird rh beta Tryptase eingesetzt, die beispielsweise von Promega käuflich zu erwerben ist. Als Substrat dient N-p-Tosyl-[…]-nitroanilin in einer Konzentration von 0.6 mM. Das Substrat wird durch Tryptase verdaut wobei p-Nitroanilin entsteht, das bei 405 nm gemessen werden kann. Üblicherweise wird eine Inkubationszeit von 5 Minuten und eine Inkubationstemperatur von 37°C gewählt. Als Enzymaktivität werden 0.91 U/ml eingesetzt. Die Bestimmung erfolgt in einem Autoanalyser (Cobas Bio) der Firma Hofmann LaRoche. Die potentiellen Hemmsubstanzen werden in Konzentrationen von 10 μM im Screening eingesetzt, wobei die Hemmung der Tryptase in Prozent angegeben wird. […] Nach 5-minütiger Vorinkubation der potentiellen Hemmsubstanzen, wird das Substrat zum […] Reaktion zugegeben, wobei die Bildung von p-Nitroanilin […]. […]

Structures can show the parent of a compound that is named as a salt.

T1 sequence (Q15661 31-275): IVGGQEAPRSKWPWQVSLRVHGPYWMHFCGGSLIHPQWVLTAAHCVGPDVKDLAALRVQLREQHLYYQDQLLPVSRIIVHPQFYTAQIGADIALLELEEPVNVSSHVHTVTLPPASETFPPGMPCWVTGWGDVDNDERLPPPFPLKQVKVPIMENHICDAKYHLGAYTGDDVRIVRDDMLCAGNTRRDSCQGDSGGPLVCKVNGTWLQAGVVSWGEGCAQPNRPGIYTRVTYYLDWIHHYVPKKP

Regarding `CCN(CC)CCN(c1ccc2c(c1)nc(CCc1ccc(C(=N)N)cc1)n2C)S(=O)(=O)c1cccc2c(N(C)C)cccc12` [Beispiel 2, N-{2-[2-(4-Amidinophenyl)ethyl]-1-methyl-benzimidazol-5-yl}-N-diethylaminoethyl-(dansylamid)-dihydrochlorid], the IC50 came to 11 nM.

What is called IC50 is the point on the concentration scale where inhibition reaches its midpoint.
